The subject of test [1] is HCV (1b) replicon, Huh-ET cells. The test is described as follows: Cell-based luciferase reporter HCV (1b) RNA replication assay. The following applies: Hepatitis C virus; for pEC50: HCV genotype 1b replicon, read-out: EC50_1b; for IC50: sub-genomic replicon 1b cell line. An excerpt: Cell-Based Luciferase Reporter HCV (Ib) RNA Replication Assay Cell Culture
Replicon cell lines Huh-5.2 are derived from the Huh-7 hepatocarcinoma cell line are maintained in culture as generally described in Krieger, N; Lohmann, V; Bartenschlager, R. Enhancement of hepatitis C virus RNA replication by cell culture-adaptive mutations. J. Virol. 2001, 75, 4614-4624. The Huh-5.2 cells contain the highly cell culture-adapted replicon I389luc-ubi-neo/NS3-3′/5.1 construct that carries, in addition to the neomycin gene, an integrated copy to the firefly luciferase gene (Krieger, N; Lohmann, V; Bartenschlager, R. Enhancement of hepatitis C virus RNA replication by cell culture-adaptive mutations. J. Virol. 2001, 75, 4614-4624). This cell line allows measurement of HCV RNA replication and translation by measuring luciferase activity. It has been previously shown that the luciferase activity tightly follows the replicon RNA level in these cells (Krieger, N; Lohmann, V; Bartenschlager, R. Enhancement of hepatitis C virus RNA replication by cell culture-adaptive mutations. J. Virol. 2001, 75, 4614-4624). The Huh-ET cell line has the same features as those mentioned for Huh-5.2 cell line, except that ET cells are more robust and contain an adaptative mutation in the HCV NS4B gene instead of NS5A. Both cell lines are maintained in cultures at a sub-confluent level (<85%) as the level of replicon RNA is highest in actively proliferating cells. The culture media used for cell passaging consist of DMEM (Gibco BRL Laboratories, Mississauga, ON, Canada) supplemented with 10% foetal bovine serum with 1% penicilin/streptomycin, 1% glutamine, 1% sodium pyruvate, 1% non-essential amino acids, and 180 μg/ml of G418 final concentration. Cells are incubated at 37° C., in an atmosphere of 5% CO2 and passaged twice a week to maintain sub-confluence.
Approximately 3000 viable Huh-ET cells (100 μl) are plated per well in a white opaque 96-well microtiter plate. The cell culture media used for the assay is the same as described above except that it contains no G418 and no phenol red. After an incubation period of 3-4 hours at 37° C. in a 5% CO2 incubator, compounds (100 μl) are added at various concentrations. Cells are then further incubated for 4 days at 37° C. in a 5% CO2 incubator. Thereafter, the culture media is removed and cells are lysed by the addition of 95 μL of the luciferase buffer (luciferin substrate in buffered detergent). Cell lysates are incubated at room temperature and protected from direct light for at least 10 minutes. Plates are read for luciferase counts using a luminometer (Wallac MicroBeta Trilux, Perkin Elmer™, MA, USA).
Curves are fitted to data points using nonlinear regression analysis, and IC50s are interpolated from the resulting curve using GraphPad Prism software, version 2.0 (GraphPad Software Inc., San Diego, Calif., USA).

The test system of test [2] is sub-genomic HCV replicon of genotype 1a (cell line W11.8). The test is described as follows: Activity determination using the ELISA and the sub-genomic replicon 1a cell line. In kind it is cell-based. The following applies: Hepatitis C virus. The source says: Activity Determination Using the ELISA and the Sub-Genomic Replicon 1a Cell Line
The cell line W11.8 containing the sub-genomic HCV replicon of genotype 1a is used to determine the potency of the drugs. The RNA replication in presence of different drug concentrations is indirectly measured in this cell line by the level of NS5A protein content upon drug treatment for four days. It is shown that the level of the NS5A protein correlates well with the level of HCV RNA in the replicon cell line. Cells are split twice a week in order to keep the confluence state below 85% of the culture flask surface area. The culture media used for cell passaging consists of DMEM-10% foetal bovine serum with 100 UI/mL penicillin, 100 μg/mL streptomycin, 2 mM glutamine, 1 mM sodium pyruvate, non-essential amino acids (1×) and 600 μg/mL of G418 final concentrations. Monolayer of the W11.8 cells is trypsinized and cells are counted. […] Then, substrate solution (100 μl, SuperSignal ELISA Pico Chemiluminescent Substrate, Fisher Cat. No. 37069) is added in each well and plates are incubated 60 minutes at room temperature prior to reading the luminescence (relative light units) on the Analyst HT plate reader. The percentage of inhibition at each drug concentration tested (in duplicate) is calculated.
A general note: In an ELISA, binding on a coated surface is turned into a signal by an enzyme label.

pEC50: −log10 of the molar value.

Regarding `COC(=O)N[C@H](C(=O)N1C[C@@H](C)C[C@H]1c1cc2cc(-c3ccc(-c4ccc(-c5cnc([C@@H]6C[C@H](C)CN6C(=O)[C@@H](NC(=O)OC)C(C)C)[nH]5)cc4)cc3)ccc2[nH]1)C(C)C` [Compound 5], the pEC50 in test [1] was at least 8.30.

Turning to `COC(=O)N[C@H](C(=O)N1[C@@H](C)CC[C@H]1c1nc(-c2ccc(-c3ccc(-c4cnc5[nH]c([C@@H]6CC[C@H](C)N6C(=O)[C@@H](NC(=O)OC)C(C)C)nc5c4)cc3)cc2)c[nH]1)C(C)C` [Compound 4], the half-maximal inhibitory concentration (IC50) (commonly the concentration that inhibits the measured activity by half) in test [2] was found to be 0.025 nM. Further, in test [1], the pEC50 is at least 8.30 and the 50% inhibitory concentration (IC50) stood at 0.07 nM.

As for `COC(=O)N[C@H](C(=O)N1C(c2nc3cc(-c4ccc(-c5ccc(-c6c[nH]c([C@@H]7CC[C@H](C)N7C(=O)[C@@H](NC(=O)OC)C(C)C)n6)cc5)cc4)cnc3[nH]2)CC[C@@H]1C)C(C)C` (stereo partly drawn) [Compound 6], the pEC50 in test [1] was at least 8.30.

`COC(=O)N[C@H](C(=O)N1C[C@@H](C)C[C@H]1c1cc2ccc(-c3ccc(-c4ccc(-c5cnc([C@@H]6C[C@H](C)CN6C(=O)[C@@H](NC(=O)OC)C(C)C)[nH]5)cc4)cc3)cc2[nH]1)C(C)C` [Compound 2]: the pEC50 in test [1] was at least 8.30.

As to `COC(=O)N[C@H](C(=O)N1C[C@@H](C)C[C@H]1c1nc(-c2ccc(-c3ccc(-c4cnc5[nH]c([C@@H]6C[C@H](C)CN6C(=O)[C@@H](NC(=O)OC)C(C)C)nc5c4)cc3)cc2)c[nH]1)C(C)C` [Compound 16, Methyl N-[(1S)-1-[(2S,4S)-2-[4-[4-[4-[2-[(2S,4S)-1-[(2S)-2-(methoxycarbonylamino)-3-methyl-butanoyl]-4-methyl-pyrrolidin-2-yl]-3H-imidazo[4,5-b]pyridin-6-yl]phenyl]phenyl]-1H-imidazol-2-yl]-4-methyl-pyrrolidine-1-carbonyl]-2-methyl-propyl]carbamate], the concentration for half-maximal inhibition (IC50) in test [2] and in test [1] was 0.01 nM in each case. In test [1], the pEC50 is at least 8.30.

With `COC(=O)N[C@H](C(=O)N1C[C@@H](C)C[C@H]1c1nc2ccc(-c3cc4sc(-c5c[nH]c([C@@H]6C[C@H](C)CN6C(=O)[C@@H](NC(=O)OC)C(C)C)n5)cc4s3)cn2n1)C(C)C` [Compound 15], the pEC50 in test [1] is at least 8.30.

As for `COC(=O)N[C@H](C(=O)N1C[C@@H](C)C[C@H]1c1ncc(-c2ccc(-c3ccc(-c4ccc5nc([C@@H]6C[C@H](C)CN6C(=O)[C@@H](NC(=O)OC)C(C)C)oc5c4)cc3)cc2)[nH]1)C(C)C` [Compound 1], the pEC50 in test [1] is at least 8.30.

In the case of `COC(=O)N[C@H](C(=O)N1C[C@@H](C)C[C@H]1c1ncc(-c2ccc(-c3ccc(-c4ccc5sc([C@@H]6C[C@H](C)CN6C(=O)[C@@H](NC(=O)OC)C(C)C)nc5c4)cc3)cc2)[nH]1)C(C)C` [Compound 3], in test [1], the pEC50 is at least 8.30.

For the origin of these results see US20130102629A1, “ANALOGUES FOR THE TREATMENT OR PREVENTION OF FLAVIVIRUS INFECTIONS” (VERTEX PHARMACEUTICALS INCORPORATED, priority 2010, published 2013).
